From patent US6245801A, “Branched alkyl pyrrolidine-3-carboxylic acids” (Warner-Lambert Company, priority 2000, dated 2001)

Legend:
Vogel = assay: Vogel; assay type: in vivo; conditions: relative to C1-1008
DBA/2 mice = assay: DBA2 mouse model of anticonvulsant efficacy (sound-induced seizures); assay type: in vivo, mouse (male DBA/2); conditions: time not printed
Description: DBA2 Mouse Model of Anticonvulsant Efficacy
All procedures were carried out in compliance with the NIH Guide for the Care and Use of Laboratory Animals under a protocol approved by the Parke-Davis Animal Use Committee. Male DBA/2 mice, 3 to 4 weeks old were obtained from Jackson Laboratories Bar Harbour, Me. Immediately before anticonvulsant testing, mice were placed upon a wire mesh, 4 inches square, suspended from a steel rod. The square was slowly inverted through 180° and mice observed for 30 seconds. Any mouse falling from the wire mesh was scored as ataxic (Coughenour L. L., McLean J. R., Parker R. B., "A new device for the rapid measurement of impaired motor function in mice," Pharm. Biochem. Behav., 1977;6(3):351-3). Mice were placed into an enclosed acrylic plastic chamber (21 cm height, approximately 30 cm diameter) with a high-frequency speaker (4 cm diameter) in the center of the top lid. An audio signal generator (Protek model B-810) was used to produce a continuous sinusoidal tone that was swept linearly in frequency between 8 kHz and 16 kHz once each 10 msec. The average sound pressure level (SPL) during stimulation was approximately 100 dB at the floor of the chamber. Mice were placed within the chamber and allowed to acclimatize for one minute. DBA/2 mice in the vehicle-treated group responded to the sound stimulus (applied until tonic extension occurred, or for a maximum of 60 sec) with a characteristic seizure sequence consisting of wild running followed by clonic seizures, and later by tonic extension, and finally by respiratory arrest and death in 80% or more of the mice. In vehicle-treated mice, the entire sequence of seizures to respiratory arrest lasts approximately 15 to 20 seconds. The incidence of all the seizure phases in the drug-treated and vehicle-treated mice was recorded, and the occurrence of tonic seizures were used for calculating anticonvulsant ED50 values by probit analysis (Litchfield J. T., Wilcoxon F. "A simplified method for evaluating dose-effect experiments," J. Pharmacol., 1949;96:99-113). Mice were used only once for testing at each dose point. Groups of DBA/2 mice (n=5-10 per dose) were tested for sound-induced seizure responses 2 hours (previously determined time of peak effect) after given drug orally. All drugs in the present study were dissolved in distilled water and given by oral gavage in a volume of 10 mL/kg of body weight. Compounds that are insoluble will be suspended in 1% carboxymethocellulose. Doses are expressed as weight of the active drug moiety.

NA Release = assay: NA Release, % inhibition; conditions: @ 100 μM
[1] = target: T1, α2δ subunit of a calcium channel (Sus scrofa, UniProt A0A287BIN3); assay: [3H]gabapentin (GAP) radioligand binding assay, α2δ subunit; parameters: species or system porcine (brain tissue)
T1 construct: α2δ subunit derived from porcine brain tissue; from tissue; host or cells: porcine brain tissue

[2] = test system: carrageenin-induced hyperalgesia; assay: CITH / carrageenin-induced hyperalgesia; assay type: in vivo, rat (male Sprague-Dawley); conditions: for CITH % MPE 1 h / CITH % MPE 2 h: Table I; for percent of maximum possible effect (MPE): 30 mg/kg orally
Description: Carrageenin-Induced Hyperalgesia
Nociceptive pressure thresholds were measured in the rat paw pressure test using an analgesymeter (Randall-Selitto method: Randall L. O. and Selitto J. J., "A method for measurement of analgesic activity on inflamed tissue," Arch. Int. Pharmacodyn., 1957;4:409-419). Male Sprague-Dawley rats (70-90 g) were trained on this apparatus before the test day. Pressure was gradually applied to the hind paw of each rat and nociceptive thresholds were determined as the pressure (g) required to elicit paw withdrawal. A cutoff point of 250 g was used to prevent any tissue damage to the paw. On the test day, two to three baseline measurements were taken before animals were administered 100 μL of 2% carrageenin by intraplantar injection into the right hind paw. […] Animals were dosed with either gabapentin ([…].), morphine (3 mg/kg, s.c.) or saline at 3.5 hours after carageenin and nociceptive thresholds were examined at 4, 4.5, and 5 hours postcarrageenin.
(R)-2-Aza-spiro[4.5]decane-4-carboxylic acid hydrochloride was tested in the above carrageenan-induced hyperalgesia model. The compound was dosed orally at 30 mg/kg, and 1 hour postdose gave a percent of maximum possible effect (MPE) of 53%. At 2 hours postdose, it gave only 4.6% of MPE.

Sys L = assay: Sys L; conditions: Table I

T1 sequence (A0A287BIN3 entry or part of it): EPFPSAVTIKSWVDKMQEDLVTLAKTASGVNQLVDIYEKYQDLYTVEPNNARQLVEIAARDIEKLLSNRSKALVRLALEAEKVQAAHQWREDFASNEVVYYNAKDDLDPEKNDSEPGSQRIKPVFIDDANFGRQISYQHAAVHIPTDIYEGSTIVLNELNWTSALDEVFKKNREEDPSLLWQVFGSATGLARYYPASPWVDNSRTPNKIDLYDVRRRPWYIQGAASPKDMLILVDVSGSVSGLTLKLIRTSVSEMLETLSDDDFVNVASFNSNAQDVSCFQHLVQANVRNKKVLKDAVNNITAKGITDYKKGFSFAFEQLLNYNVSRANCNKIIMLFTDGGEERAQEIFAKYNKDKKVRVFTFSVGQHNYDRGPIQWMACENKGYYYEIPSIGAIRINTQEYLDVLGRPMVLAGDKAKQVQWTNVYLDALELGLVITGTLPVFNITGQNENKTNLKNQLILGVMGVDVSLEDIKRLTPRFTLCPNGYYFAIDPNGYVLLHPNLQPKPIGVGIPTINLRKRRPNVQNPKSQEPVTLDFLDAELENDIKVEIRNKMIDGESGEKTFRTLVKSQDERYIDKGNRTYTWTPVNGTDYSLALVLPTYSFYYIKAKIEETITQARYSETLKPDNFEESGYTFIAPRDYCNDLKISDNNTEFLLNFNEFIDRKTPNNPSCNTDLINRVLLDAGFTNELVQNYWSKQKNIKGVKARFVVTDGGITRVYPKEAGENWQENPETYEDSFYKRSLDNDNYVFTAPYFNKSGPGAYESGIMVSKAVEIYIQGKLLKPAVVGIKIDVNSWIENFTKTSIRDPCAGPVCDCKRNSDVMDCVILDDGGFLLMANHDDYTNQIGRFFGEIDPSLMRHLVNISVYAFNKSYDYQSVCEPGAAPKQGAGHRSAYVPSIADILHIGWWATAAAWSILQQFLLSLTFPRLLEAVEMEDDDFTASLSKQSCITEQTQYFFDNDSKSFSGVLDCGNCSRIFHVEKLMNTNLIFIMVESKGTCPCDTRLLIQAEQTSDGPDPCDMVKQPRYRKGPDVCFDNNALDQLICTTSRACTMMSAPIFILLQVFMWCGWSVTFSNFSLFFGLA

CC(C)C[C@H]1CNC[C@@H]1C(=O)O
Vogel % of C1-1008 (Vogel): 0.63 % of C1-1008 | DBA 2 % Protect (time) (DBA/2 mice; first value of the column): 20% | DBA 2 % Protect (time) (DBA/2 mice; second value of the column): 40% | NA Release % Inhibition (NA Release): 16%

CC(C)C[C@@H]1CNC[C@H]1C(=O)O
Vogel % of C1-1008 (Vogel): -0.63 % of C1-1008 | NA Release % Inhibition (NA Release): 8%

CC1(C)CNCC1C(=O)O (racemic)
IC50 [1]: 1.19 µM

C[C@H]1CNC[C@@H]1C(=O)O (relative stereo)
IC50 [1]: 3.1 µM

CC(C)[C@H]1CNC[C@@H]1C(=O)O (relative stereo)
IC50 [1]: 0.543 µM

CCC[C@H]1CNC[C@@H]1C(=O)O (relative stereo)
IC50 [1]: 0.03 µM

CCCC[C@H]1CNC[C@@H]1C(=O)O (relative stereo)
IC50 [1]: 0.064 µM

CC(C)C[C@H]1CNC[C@@H]1C(=O)O (stereo in doubt)
DBA 2 % Protect (time) (DBA/2 mice; first value of the column): 0% | DBA 2 % Protect (time) (DBA/2 mice; second value of the column): 0% | CITH % MPE 1 h [2]: 3 % MPE | CITH % MPE 2 h [2]: -15 % MPE

CC(C)C[C@@H]1CNC[C@@H]1C(=O)O (stereo in doubt)
DBA 2 % Protect (time) (DBA/2 mice; first value of the column): 0% | DBA 2 % Protect (time) (DBA/2 mice; second value of the column): 0% | IC50 [1]: 0.7 µM | CITH % MPE 1 h [2]: 23 % MPE | CITH % MPE 2 h [2]: 3.3 % MPE

CC(C)C[C@H]1CNC[C@H]1C(=O)O (stereo in doubt) [Example 1, (cis)-4-Isobutyl-pyrrolidine-3-carboxylic acid]
IC50 [1]: 0.135 µM

Cl.O=C(O)[C@H]1CNCC12CCCCC2 [(R)-2-Aza-spiro[4.5]decane-4-carboxylic acid hydrochloride]
DBA 2 % Protect (time) (DBA/2 mice; first value of the column): 20% | DBA 2 % Protect (time) (DBA/2 mice; second value of the column): 20% | IC50 (Sys L): > 10000 µM | IC50 [1]: 0.12 µM | percent of maximum possible effect (MPE) ([2]; 1 hour postdose): 53% | percent of maximum possible effect (MPE) ([2]; 2 hours postdose): 4.6% | CITH % MPE 1 h [2]: 53 % MPE | CITH % MPE 2 h [2]: 4.6 % MPE

NCC1(CC(=O)O)CCCCC1 [reference compound]
Vogel % of C1-1008 (Vogel): 63.7 % of C1-1008 | DBA 2 % Protect (time) (DBA/2 mice; first value of the column): 100% | IC50 (Sys L): 25 µM | CITH % MPE 1 h [2]: 48.9 % MPE | CITH % MPE 2 h [2]: 19.9 % MPE

CC(C)C[C@H](CN)CC(=O)O [reference compound]
Vogel % of C1-1008 (Vogel): 100 % of C1-1008 | DBA 2 % Protect (time) (DBA/2 mice; first value of the column): 100% | DBA 2 % Protect (time) (DBA/2 mice; second value of the column): 100% | IC50 (Sys L): 193 µM | IC50 [1]: 0.087 µM | CITH % MPE 1 h [2]: 52.5 % MPE | CITH % MPE 2 h [2]: 50.1 % MPE
